For 6 compounds, Solubility and solubility results are on record in patent publication US9593149B2, “Amylin and calcitonin receptor agonist” (Novo Nordisk A/S, priority 2014, dated 2017).

A short description of the series: Assay (IV) determination of solubility. It is filed as physicochemical. As to the method: Assay (IV)—Determination of Solubility
The mimylin peptide was dissolved in water at ˜500 nmol/ml and mixed 1:1 with a series of buffers (100 mM glycylglycine pH 3.0, 100 mM glycylglycine pH 4.0, 100 mM glycylglycine pH 5.0, 100 mM bistrispropane pH 6.0, 100 mM bistrispropane pH 6.5, 100 mM bistrispropane pH 7.0, 100 mM bistrispropane pH 7.5, 100 mM bistrispropane pH 8.0).

Values after ≈ are worked out from the molar mass of the structure shown. Numbered stars: 1 amine (or outer) side, 2 acyl side, 3 side chain; on linkers, the order of the positions; unused ones are H or OH. Peptide text beside a SMILES is read from it. * marks the point of attachment. C20 diacid = O=C(O)CCCCCCCCCCCCCCCCCCC(=O)*; C18 diacid = O=C(O)CCCCCCCCCCCCCCCCC(=O)*; γGlu = O=C(O)[C@H](CCC(=O)[*:2])N[*:1]

For `CC(C)C[C@H](NC(=O)[C@H](CCC(=O)O)NC(=O)[C@H](Cc1cnc[nH]1)NC(=O)[C@H](CC(C)C)NC(=O)[C@H](CCC(=O)O)NC(=O)[C@H](C)NC(=O)[C@H](CO)NC(=O)[C@H](CC(C)C)NC(=O)[C@H](CCCNC(=N)N)NC(=O)CNC(=O)[C@H](CC(C)C)NC(=O)[C@@H](NC(=O)[C@H](C)NC(=O)[C@@H](NC(=O)[C@H](CO)NC(=O)[C@H](CC(C)C)NC(=O)[C@H](CCC(=O)O)NC(=O)[C@@H]1CCCN1C(=O)[C@H](C)NC(=O)[C@H](CCC(=O)O)NC(=O)CCCCCCCCCCCCCCCCC(=O)O)[C@@H](C)O)C(C)C)C(=O)N[C@@H](C)C(=O)N[C@H](C(=O)N[C@@H](CC(C)C)C(=O)N1CCC[C@H]1C(=O)N[C@@H](CCCNC(=N)N)C(=O)N[C@H](C(=O)N[C@@H](CCC(=O)O)C(=O)N[C@H](C(=O)NCC(=O)N1CCC[C@H]1C(=O)N[C@@H](CCC(=O)O)C(=O)N[C@@H](CO)C(=O)N1CCC[C@H]1C(N)=O)[C@@H](C)O)[C@@H](C)O)[C@@H](C)O` [compound 29, [N-terminal(C18 diacid), 3P, 9V]mimylin] ({C18 diacid}-EAPELSTAVLGRLSAELHELATLPRTETGPESP-NH2), the Solubility result is recorded as “≧200 μM” (pH 3.0); “≧200 μM” (pH 4.0); “≧200 μM” (pH 5.0); “≧200 μM” (pH 6.0); “≧200 μM” (pH 6.5); “≧200 μM” (pH 7.0). Besides, the Solubility result reads like this: (pH 7.5) “≧200 μM”; (pH 8.0) “≧200 μM”.
The solubility is the dissolved amount per volume that the medium holds. Low values mean little dissolved substance, high ones much dissolved substance. Take `CC[C@H](C)[C@H](NC(=O)[C@H](CCC(=O)O)NC(=O)[C@H](CO)NC(=O)[C@H](C)NC(=O)[C@H](CCC(=O)O)NC(=O)CCCCCCCCCCCCCCCCC(=O)O)C(=O)N[C@@H](CO)C(=O)N[C@H](C(=O)N[C@@H](C)C(=O)N[C@@H](C)C(=O)N[C@@H](CC(C)C)C(=O)NCC(=O)N[C@@H](CCCNC(=N)N)C(=O)N[C@@H](CC(C)C)C(=O)N[C@@H](CO)C(=O)N[C@@H](C)C(=O)N[C@@H](CCC(=O)O)C(=O)N[C@@H](CC(C)C)C(=O)N[C@@H](Cc1cnc[nH]1)C(=O)N[C@@H](CCC(=O)O)C(=O)N[C@@H](CC(C)C)C(=O)N[C@@H](C)C(=O)N[C@H](C(=O)N[C@@H](CC(C)C)C(=O)N1CCC[C@H]1C(=O)N[C@@H](CCCNC(=N)N)C(=O)N[C@H](C(=O)N[C@@H](CCC(=O)O)C(=O)N[C@H](C(=O)NCC(=O)N1CCC[C@H]1C(=O)N[C@@H](CCC(=O)O)C(=O)N[C@@H](CO)C(=O)N1CCC[C@H]1C(N)=O)[C@@H](C)O)[C@@H](C)O)[C@@H](C)O)[C@@H](C)O` [Ex. #8, [N-terminal(C18 diacid), 5I]mimylin] ({C18 diacid}-EASEISTAALGRLSAELHELATLPRTETGPESP-NH2): the Solubility entry runs as follows: (pH 3.0) “≧200 μM”; (pH 6.0) “≧200 μM”; (pH 6.5) “≧200 μM”; (pH 7.0) “≧200 μM”; (pH 7.5) “≧200 μM”; (pH 8.0) “≧200 μM”. The solubility at 18 h runs as follows: (pH 4.0) 94 µM (≈ 351 µg/mL); (pH 5.0) 35 µM (≈ 131 µg/mL).
Consider `CC(C)C[C@H](NC(=O)[C@H](CCC(=O)O)NC(=O)[C@H](Cc1cnc[nH]1)NC(=O)[C@H](CC(C)C)NC(=O)[C@H](CCC(=O)O)NC(=O)[C@H](C)NC(=O)[C@H](CO)NC(=O)[C@H](CC(C)C)NC(=O)[C@H](CCCNC(=N)N)NC(=O)CNC(=O)[C@H](CC(C)C)NC(=O)[C@@H](NC(=O)[C@H](C)NC(=O)[C@@H](NC(=O)[C@H](CO)NC(=O)[C@H](CC(C)C)NC(=O)[C@H](CCC(=O)O)NC(=O)[C@H](CO)NC(=O)[C@@H]1CCCN1C(=O)[C@H](CCC(=O)O)NC(=O)CCCCCCCCCCCCCCCCC(=O)O)[C@@H](C)O)C(C)C)C(=O)N[C@@H](C)C(=O)N[C@H](C(=O)N[C@@H](CC(C)C)C(=O)N1CCC[C@H]1C(=O)N[C@@H](CCCNC(=N)N)C(=O)N[C@H](C(=O)N[C@@H](CCC(=O)O)C(=O)N[C@H](C(=O)NCC(=O)N1CCC[C@H]1C(=O)N[C@@H](CCC(=O)O)C(=O)N[C@@H](CO)C(=O)N1CCC[C@H]1C(N)=O)[C@@H](C)O)[C@@H](C)O)[C@@H](C)O` [compound 28, [N-terminal(C18 diacid), 2P, 9V]mimylin] ({C18 diacid}-EPSELSTAVLGRLSAELHELATLPRTETGPESP-NH2), for which the Solubility result was “≧200 μM” (pH 3.0); “≧200 μM” (pH 4.0); “≧200 μM” (pH 5.0); “≧200 μM” (pH 6.0); “≧200 μM” (pH 6.5); “≧200 μM” (pH 7.0). Also, the Solubility entry is recorded as “≧200 μM” (pH 7.5) and “≧200 μM” (pH 8.0).
For the compound `CC(C)C[C@H](NC(=O)[C@H](C)NC(=O)[C@H](CC(C)C)NC(=O)[C@@H](NC(=O)[C@H](CO)NC(=O)[C@H](CC(C)C)NC(=O)[C@H](CCC(=O)O)NC(=O)[C@H](CO)NC(=O)[C@H](C)NC(=O)[C@H](CCC(=O)O)NC(=O)CCCCCCCCCCCCCCCCC(=O)O)[C@@H](C)O)C(=O)NCC(=O)N[C@@H](CCCNC(=N)N)C(=O)N[C@@H](CC(C)C)C(=O)N[C@@H](CO)C(=O)N[C@@H](C)C(=O)N[C@@H](CCC(=O)O)C(=O)N[C@@H](CC(C)C)C(=O)N[C@@H](Cc1cnc[nH]1)C(=O)N[C@@H](CCC(=O)O)C(=O)N[C@@H](CC(C)C)C(=O)N[C@@H](C)C(=O)N[C@H](C(=O)N[C@@H](CC(C)C)C(=O)N1CCC[C@H]1C(=O)N[C@@H](CCCNC(=N)N)C(=O)N[C@H](C(=O)N[C@@H](CCC(=O)O)C(=O)N[C@H](C(=O)NCC(=O)N1CCC[C@H]1C(=O)N[C@@H](CCC(=O)O)C(=O)N[C@@H](CO)C(=O)N1CCC[C@H]1C(N)=O)[C@@H](C)O)[C@@H](C)O)[C@@H](C)O` [compound 15, [N-terminal(C18 diacid), 8L]mimylin] ({C18 diacid}-EASELSTLALGRLSAELHELATLPRTETGPESP-NH2), the Solubility result (pH 3.0) is “≧200 μM”; the Solubility entry (pH 4.0) is given as “≧200 μM”; the Solubility entry (pH 5.0) is on record as “≧200 μM”; the Solubility result (pH 6.0) was “≧200 μM”; the Solubility result (pH 6.5) is “≧200 μM”; the Solubility result (pH 7.0) is given as “≧200 μM”. The Solubility entry is listed as “≧200 μM” (pH 7.5) and “≧200 μM” (pH 8.0).
Regarding `CC(C)C[C@H](NC(=O)[C@H](CCC(=O)O)NC(=O)[C@H](Cc1cnc[nH]1)NC(=O)[C@H](CC(C)C)NC(=O)[C@H](CCC(=O)O)NC(=O)[C@H](C)NC(=O)[C@H](CO)NC(=O)[C@H](CC(C)C)NC(=O)[C@H](CCCNC(=N)N)NC(=O)CNC(=O)[C@H](CC(C)C)NC(=O)[C@@H](NC(=O)[C@H](C)NC(=O)[C@@H](NC(=O)[C@H](CO)NC(=O)[C@@H](NC(=O)[C@H](CCC(=O)O)NC(=O)[C@H](CO)NC(=O)[C@H](C)NC(=O)[C@H](CCC(=O)O)NC(=O)CCCCCCCCCCCCCCCCC(=O)O)C(C)C)[C@@H](C)O)C(C)C)C(=O)N[C@@H](C)C(=O)N[C@H](C(=O)N[C@@H](CC(C)C)C(=O)N1CCC[C@H]1C(=O)N[C@@H](CCCNC(=N)N)C(=O)N[C@H](C(=O)N[C@@H](CCC(=O)O)C(=O)N[C@H](C(=O)NCC(=O)N1CCC[C@H]1C(=O)N[C@@H](CCC(=O)O)C(=O)N[C@@H](CO)C(=O)N1CCC[C@H]1C(N)=O)[C@@H](C)O)[C@@H](C)O)[C@@H](C)O` [compound 24, [N-terminal(C18 diacid), 5V, 9V]mimylin] ({C18 diacid}-EASEVSTAVLGRLSAELHELATLPRTETGPESP-NH2), the Solubility entry is, setting by setting: (pH 3.0) “≧200 μM”; (pH 6.0) “≧200 μM”; (pH 6.5) “≧200 μM”; (pH 7.0) “≧200 μM”; (pH 7.5) “≧200 μM”; (pH 8.0) “≧200 μM”. Besides, the solubility at 18 h reads like this: (pH 4.0) 150 µM (≈ 562 µg/mL); (pH 5.0) 145 µM (≈ 543 µg/mL).
Turning to `CC(C)C[C@H](NC(=O)CNC(=O)[C@H](CO)NC(=O)[C@H](C)NC(=O)CC[C@H](NC(=O)CCCCCCCCCCCCCCCCCCC(=O)O)C(=O)O)C(=O)N[C@@H](CO)C(=O)N[C@H](C(=O)N[C@@H](C)C(=O)N[C@H](C(=O)N[C@@H](CC(C)C)C(=O)NCC(=O)N[C@@H](CCCNC(=N)N)C(=O)N[C@@H](CC(C)C)C(=O)N[C@@H](CO)C(=O)N[C@@H](CCC(N)=O)C(=O)N[C@@H](CCC(=O)O)C(=O)N[C@@H](CC(C)C)C(=O)N[C@@H](Cc1cnc[nH]1)C(=O)N[C@@H](CCC(=O)O)C(=O)N[C@@H](CC(C)C)C(=O)N[C@@H](CCC(N)=O)C(=O)N[C@H](C(=O)N[C@@H](CC(C)C)C(=O)N[C@@H](CCC(N)=O)C(=O)N[C@H](C(=O)N[C@@H](Cc1ccc(O)cc1)C(=O)N1CCC[C@H]1C(=O)N[C@@H](CCCNC(=N)N)C(=O)N[C@H](C(=O)N[C@@H](CCC(=O)O)C(=O)N[C@H](C(=O)NCC(=O)N[C@@H](CO)C(=O)N[C@@H](CCC(N)=O)C(=O)N[C@H](C(=O)N[C@@H](Cc1ccc(O)cc1)C(N)=O)[C@@H](C)O)[C@@H](C)O)[C@@H](C)O)[C@@H](C)O)[C@@H](C)O)C(C)C)[C@@H](C)O` [compound 130, [N-terminal(C20 diacid-gGlu), des1, 4G, 9V, 15Q, 21Q, 23aQ, 23bT, 23cY, 30S, 31Q, 32T, 33Y]mimylin] ({C20 diacid-γGlu}-ASGLSTAVLGRLSQELHELQTLQTYPRTETGSQTY-NH2), the Solubility result by setting is: (pH 3.0) “≧200 μM”; (pH 6.0) “≧200 μM”; (pH 6.5) “≧200 μM”; (pH 7.0) “≧200 μM”; (pH 7.5) “≧200 μM”; (pH 8.0) “≧200 μM”. Moreover, the solubility at 18 h is 174 µM (≈ 746 µg/mL) (pH 4.0) and 9 µM (≈ 38.6 µg/mL) (pH 5.0).
